Test results taken from patent US20250041312A1, “METHODS OF ADMINISTERING A MODULATOR OF HEMOGLOBIN” (Global Blood Therapeutics, Inc., priority 2021, published 2025).
Like-named read-outs stand apart in the source and are kept apart here.

Experiment: SAD study in healthy volunteers: PK in plasma, whole blood, red blood cells
Assay type: in vivo, human
Settings: human; for half-life: read-out: t1/2 (converted); for Tmax: median
Description: To evaluate the safety and tolerability of single ascending doses of Compound I, 48 healthy volunteers (42 in the fasted state and 6 in the fed state) aged 18 to 55 years old were administered single ascending doses (50 mg to 2200 mg) of Compound I, while 16 healthy volunteers (14 in the fasted state and 2 in the fed state) aged 18 to 55 years old were administered placebo in a double blind, randomized, sequential manner.
Whole blood pharmacokinetic (PK) parameters, using actual sample collection times, and hemoglobin occupancy after single ascending dose are shown in Table 5 (containing data from both healthy volunteers and SCD subjects) and Table 6 (containing data from only healthy volunteer subjects).

- Cmax (whole blood, 2200 mg, HV single 2200 mg, mean): 390 µg/mL
- AUC(0-t) (whole blood, 2200 mg, HV single 2200 mg, whole blood, mean, blood collected up to day 7, read-out: AUC0-t): 48000 µg·h/mL
- Cmax (whole blood, po, 50 mg, HV single oral 50 mg (Cohort 1), geometric mean): 8 µg/mL
- AUC(0-t) (whole blood, po, 50 mg, HV single oral 50 mg (Cohort 1), whole blood, geometric mean, read-out: AUClast): 6810 µg·h/mL
- half-life (whole blood, po, 50 mg, HV single oral 50 mg (Cohort 1), whole blood, geometric mean): 683 h
- Cmax (whole blood, po, 100 mg, HV single oral 100 mg (Cohort 2), geometric mean): 17.3 µg/mL
- AUC(0-t) (whole blood, po, 100 mg, HV single oral 100 mg (Cohort 2), whole blood, geometric mean, read-out: AUClast): 14300 µg·h/mL
- half-life (whole blood, po, 100 mg, HV single oral 100 mg (Cohort 2), whole blood, geometric mean): 698 h
- Cmax (whole blood, po, 200 mg, HV single oral 200 mg (Cohort 3), geometric mean): 34.2 µg/mL
- AUC(0-t) (whole blood, po, 200 mg, HV single oral 200 mg (Cohort 3), whole blood, geometric mean, read-out: AUClast): 28600 µg·h/mL
- half-life (whole blood, po, 200 mg, HV single oral 200 mg (Cohort 3), whole blood, geometric mean): 677 h
- Cmax (whole blood, po, 400 mg, HV single oral 400 mg (Cohort 5), geometric mean): 87.6 µg/mL
- AUC(0-t) (whole blood, po, 400 mg, HV single oral 400 mg (Cohort 5), whole blood, geometric mean, read-out: AUClast): 62200 µg·h/mL
- half-life (whole blood, po, 400 mg, HV single oral 400 mg (Cohort 5), whole blood, geometric mean): 609 h
- Cmax (whole blood, po, 800 mg, HV single oral 800 mg (Cohort 6), geometric mean): 149 µg/mL
- AUC(0-t) (whole blood, po, 800 mg, HV single oral 800 mg (Cohort 6), whole blood, geometric mean, read-out: AUClast): 103000 µg·h/mL
- half-life (whole blood, po, 800 mg, HV single oral 800 mg (Cohort 6), whole blood, geometric mean): 625 h
- Cmax (whole blood, po, 1400 mg, HV single oral 1400 mg (Cohort 7), geometric mean): 230 µg/mL
- AUC(0-t) (whole blood, po, 1400 mg, HV single oral 1400 mg (Cohort 7), whole blood, geometric mean, read-out: AUClast): 192000 µg·h/mL
- half-life (whole blood, po, 1400 mg, HV single oral 1400 mg (Cohort 7), whole blood, geometric mean): 656 h
- Cmax (whole blood, po, 2200 mg, HV single oral 2200 mg (Cohort 8), geometric mean): 387 µg/mL
- AUC(0-t) (whole blood, po, 2200 mg, HV single oral 2200 mg (Cohort 8), whole blood, geometric mean, read-out: AUClast): 264000 µg·h/mL
- half-life (whole blood, po, 2200 mg, HV single oral 2200 mg (Cohort 8), whole blood, geometric mean): 590 h
- Tmax (HV single 50 mg, whole blood): 24 h
- Tmax (HV single 100 mg, whole blood): 24 h
- Tmax (HV single 200 mg, whole blood): 8 h
- Tmax (HV single 400 mg, whole blood): 8 h
- Tmax (HV single 800 mg, whole blood): 16 h
- Tmax (HV single 1400 mg, whole blood): 12 h
- Tmax (HV single 2200 mg, whole blood): 24 h
- AUC(0-inf) (HV single oral 50 mg (Cohort 1), plasma, geometric mean): 34.2 µg·h/mL
- Tmax (HV single oral 50 mg (Cohort 1), plasma): 0.75 h
- AUC(0-inf) (HV single oral 50 mg (Cohort 1), red blood cells (calculated conc.), geometric mean): 18100 µg·h/mL
- Tmax (HV single oral 50 mg (Cohort 1), red blood cells (conc. calculated from blood, plasma, hematocrit)): 24 h
- AUC(0-inf) (HV single oral 50 mg (Cohort 1), whole blood, geometric mean): 7490 µg·h/mL
- Tmax (HV single oral 50 mg (Cohort 1), whole blood): 24 h
- AUC(0-inf) (HV single oral 100 mg (Cohort 2), plasma, geometric mean): 74.5 µg·h/mL
- Tmax (HV single oral 100 mg (Cohort 2), plasma): 1 h
- AUC(0-inf) (HV single oral 100 mg (Cohort 2), red blood cells (calculated conc.), geometric mean): 38500 µg·h/mL
- Tmax (HV single oral 100 mg (Cohort 2), red blood cells (calculated conc.)): 24 h
- AUC(0-inf) (HV single oral 100 mg (Cohort 2), whole blood, geometric mean): 15900 µg·h/mL
- Tmax (HV single oral 100 mg (Cohort 2), whole blood): 24 h
- AUC(0-inf) (HV single oral 200 mg (Cohort 3), plasma, geometric mean): 152 µg·h/mL
- Tmax (HV single oral 200 mg (Cohort 3), plasma): 1 h
- AUC(0-inf) (HV single oral 200 mg (Cohort 3), red blood cells (calculated conc.), geometric mean): 71200 µg·h/mL
- Tmax (HV single oral 200 mg (Cohort 3), red blood cells (calculated conc.)): 8 h
- AUC(0-inf) (HV single oral 200 mg (Cohort 3), whole blood, geometric mean): 31600 µg·h/mL
- Tmax (HV single oral 200 mg (Cohort 3), whole blood): 8 h
- AUC(0-inf) (HV single oral 400 mg (Cohort 5), plasma, geometric mean): 361 µg·h/mL
- Tmax (HV single oral 400 mg (Cohort 5), plasma): 1 h
- AUC(0-inf) (HV single oral 400 mg (Cohort 5), red blood cells (calculated conc.), geometric mean): 163000 µg·h/mL
- Tmax (HV single oral 400 mg (Cohort 5), red blood cells (calculated conc.)): 10 h
- AUC(0-inf) (HV single oral 400 mg (Cohort 5), whole blood, geometric mean): 67200 µg·h/mL
- Tmax (HV single oral 400 mg (Cohort 5), whole blood): 8 h
- AUC(0-inf) (HV single oral 800 mg (Cohort 6), plasma, geometric mean): 623 µg·h/mL
- Tmax (HV single oral 800 mg (Cohort 6), plasma): 2.5 h
- AUC(0-inf) (HV single oral 800 mg (Cohort 6), red blood cells (calculated conc.), geometric mean): 266000 µg·h/mL
- Tmax (HV single oral 800 mg (Cohort 6), red blood cells (calculated conc.)): 36 h
- AUC(0-inf) (HV single oral 800 mg (Cohort 6), whole blood, geometric mean): 111000 µg·h/mL
- Tmax (HV single oral 800 mg (Cohort 6), whole blood): 16 h
- AUC(0-inf) (HV single oral 1400 mg (Cohort 7), plasma, geometric mean): 1080 µg·h/mL
- Tmax (HV single oral 1400 mg (Cohort 7), plasma): 2.5 h
- AUC(0-inf) (HV single oral 1400 mg (Cohort 7), red blood cells (calculated conc.), geometric mean): 499000 µg·h/mL
- Tmax (HV single oral 1400 mg (Cohort 7), red blood cells (calculated conc.)): 30 h
- AUC(0-inf) (HV single oral 1400 mg (Cohort 7), whole blood, geometric mean): 210000 µg·h/mL
- Tmax (HV single oral 1400 mg (Cohort 7), whole blood): 12 h
- AUC(0-inf) (HV single oral 2200 mg (Cohort 8), plasma, geometric mean): 1430 µg·h/mL
- Tmax (HV single oral 2200 mg (Cohort 8), plasma): 3.5 h
- AUC(0-inf) (HV single oral 2200 mg (Cohort 8), red blood cells (calculated conc.), geometric mean): 670000 µg·h/mL
- Tmax (HV single oral 2200 mg (Cohort 8), red blood cells (calculated conc.)): 24 h
- AUC(0-inf) (HV single oral 2200 mg (Cohort 8), whole blood, geometric mean): 282000 µg·h/mL
- Tmax (HV single oral 2200 mg (Cohort 8), whole blood): 24 h
- Tmax (healthy volunteers n=6, single 100 mg, plasma): 1 h
Structure (SMILES): O=Cc1c(O)cccc1OC[C@@H]1COCCN1C(=O)c1cccnc1CCO [Compound I, (S)-2-hydroxy-6-((4-(2-(2-hydroxyethyl)nicotinoyl)morpholin-3-yl)methoxy)benzaldehyde]
